The text below walks through data of PMC8651714 (Scientific Reports, 2021).

Where two headings read alike, the source gives them in different places.

In one experiment the test system is human MAO-A (hMAO-A). The note with it: cited from earlier work.
A further experiment concerns human MAO-B (hMAO-B). Particulars: cited from earlier work.
In the next experiment the target is T1, hMAO-A (Homo sapiens, UniProt P21397).
T1 construct: purchased Sigma Aldrich
T1 sequence (P21397 1-527): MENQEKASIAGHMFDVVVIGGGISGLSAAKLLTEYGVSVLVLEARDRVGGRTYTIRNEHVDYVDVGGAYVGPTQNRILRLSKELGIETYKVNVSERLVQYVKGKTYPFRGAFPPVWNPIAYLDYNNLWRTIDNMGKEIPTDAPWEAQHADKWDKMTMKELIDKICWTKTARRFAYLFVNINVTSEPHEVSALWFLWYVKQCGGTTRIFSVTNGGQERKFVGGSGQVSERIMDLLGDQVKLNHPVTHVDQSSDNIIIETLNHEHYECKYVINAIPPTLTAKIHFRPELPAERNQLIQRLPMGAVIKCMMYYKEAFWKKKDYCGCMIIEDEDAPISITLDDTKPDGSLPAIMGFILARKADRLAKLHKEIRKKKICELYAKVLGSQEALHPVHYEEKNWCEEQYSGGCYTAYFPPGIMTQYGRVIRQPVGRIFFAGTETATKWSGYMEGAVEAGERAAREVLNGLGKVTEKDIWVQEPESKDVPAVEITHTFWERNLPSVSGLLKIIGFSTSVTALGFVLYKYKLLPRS
Briefly: Recombinant hMAO-A inhibitory assay (luminescent) and enzyme kinetics. It is filed as biochemical.

Experiment [1] addresses T2, human dopamine D2L receptor (Homo sapiens, UniProt P14416).
T2 construct: host or cells: HEK-293
Briefly: Radioligand binding assay, [3H]methylspiperone, HEK-D2LR membranes. The note with it: duplicate.

Experiment [2] addresses T3, human dopamine D4 receptor (Homo sapiens, UniProt P21917).
T3 construct: host or cells: CHO
T3 sequence (P21917 1-419): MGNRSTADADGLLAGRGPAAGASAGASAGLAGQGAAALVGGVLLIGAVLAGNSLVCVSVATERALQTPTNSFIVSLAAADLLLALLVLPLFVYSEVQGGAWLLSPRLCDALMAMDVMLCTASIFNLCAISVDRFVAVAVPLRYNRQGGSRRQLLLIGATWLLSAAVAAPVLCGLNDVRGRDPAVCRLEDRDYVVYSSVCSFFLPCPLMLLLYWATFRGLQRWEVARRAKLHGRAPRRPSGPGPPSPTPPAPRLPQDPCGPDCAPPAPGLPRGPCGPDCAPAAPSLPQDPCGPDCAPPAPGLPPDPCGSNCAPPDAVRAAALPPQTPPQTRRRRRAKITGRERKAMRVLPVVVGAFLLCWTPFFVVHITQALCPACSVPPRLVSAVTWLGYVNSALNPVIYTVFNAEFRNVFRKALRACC
Briefly: Radioligand binding assay, [3H]methylspiperone, CHO-D4R membranes. Particulars: duplicate, read-out: % Inhibition of control-specific binding.

Experiment [3] addresses T4, human vasopressin V1A receptor (Homo sapiens, UniProt P37288). Particulars: agonist binding, [3H]AVP, 100 µM, duplicate.
Experiment [4] deals with T5, human dopamine D3 receptor (Homo sapiens, UniProt P35462). Particulars: 100 µM.
Another experiment concerns MAO from bovine serum. Also noted: method as in PMID 1913999. Particulars: read-out: Concentration for 50% inhibition of MAO activity; cited from earlier work.
Another experiment deals with rat brain MAO-A. The note with it: cited from earlier work.
For the next experiment, the system named is rat brain MAO-B. Particulars: cited from earlier work.
The target of experiment [5] is human dopamine D1 receptor (Homo sapiens, UniProt P21728). Briefly: cell-based.
For experiment [6], the target named is T5, human dopamine D3 receptor. Briefly: cell-based.
Experiment [7] addresses T4, human vasopressin V1A receptor. Briefly: cell-based.
The next experiment concerns the target T6, hMAO-B (Homo sapiens, UniProt P27338).
T6 sequence (P27338 1-520): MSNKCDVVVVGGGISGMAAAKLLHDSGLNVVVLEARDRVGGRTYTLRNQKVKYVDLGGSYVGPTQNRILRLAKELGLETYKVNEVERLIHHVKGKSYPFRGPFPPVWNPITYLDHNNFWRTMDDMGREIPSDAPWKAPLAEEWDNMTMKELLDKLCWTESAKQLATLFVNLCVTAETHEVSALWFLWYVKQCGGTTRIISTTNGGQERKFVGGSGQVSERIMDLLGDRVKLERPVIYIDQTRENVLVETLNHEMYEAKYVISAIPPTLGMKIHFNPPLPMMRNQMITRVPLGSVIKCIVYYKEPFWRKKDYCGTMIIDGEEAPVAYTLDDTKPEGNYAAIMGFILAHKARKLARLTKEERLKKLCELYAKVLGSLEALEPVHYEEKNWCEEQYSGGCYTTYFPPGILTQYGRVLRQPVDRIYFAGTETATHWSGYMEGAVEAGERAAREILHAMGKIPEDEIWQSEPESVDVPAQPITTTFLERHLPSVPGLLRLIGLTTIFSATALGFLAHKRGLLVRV
Briefly: biochemical. The note with it: for Ki: inhibition constant from secondary plots.

Setting [8] is: ILG isolated from Colvillea racemosa.

For the compound `COc1cc(O)ccc1C(=O)/C=C/c1ccc(O)cc1` [3-Deoxysappanchalcone, 2′-methoxy-4′,4″-dihydroxychalcone, reference compound], the IC50 in the experiment with human MAO-A (hMAO-A) is 10.1 µM; in the experiment on human MAO-B (hMAO-B), 0.68 µM.
Take `O=C(/C=C/c1ccc(O)cc1)c1ccc(O)cc1O` [Isoliquiritigenin, 4,2′,4′-Trihydroxychalcone]: the Ki at hMAO-A (inhibition constant from secondary plots) was 0.16 µM; on hMAO-B (hMAO-B Kic) it was 0.094 µM; at hMAO-B (hMAO-B Kiu), 0.71 ± 0.01 µM. In addition, the IC50 on hMAO-A (recombinant hMAO-A, mean ± standard deviation of triplicate assays) is 0.68 ± 0.03 µM; in the experiment with MAO from bovine serum, > 200 µM; in the experiment with rat brain MAO-A (ILG isolated from Sinofranchetia chinensis, rat brain, read-out: rMAO-A IC50) it was 13.9 µM; with rat brain MAO-B (ILG isolated from Sinofranchetia chinensis, rat brain, read-out: rMAO-B IC50) it was 47.2 µM; in the experiment on human MAO-A (hMAO-A) (setting [8]), 22.7 ± 1.84 µM; in the experiment on human MAO-A (hMAO-A) (earlier report) it was 41.5 µM. Moreover, the IC50 in the experiment on human MAO-B (hMAO-B) (setting [8]) was 0.51 ± 0.01 µM; with human MAO-B (hMAO-B) (earlier report) it was 21.8 µM; in experiment [5], 68.9 ± 0.2 µM; on hMAO-B, 0.33 ± 0.02 µM. Also, the results for the “% Inhibition of control-specific binding” value in experiment [1] (100 µM) and in experiment [3] were “no binding affinity” and 60.8%, respectively. The inhibition at 100 µM in experiment [1] (read-out: % Inhibition of control-specific binding) stood at 21.3%; in [2], 44.8%. Also, in experiment [4], the “% Stimulation (percentage of control agonist response)” value came out at 92.7 ± 0.5%. For the same compound, the rMAO-A inhibition type result with rat brain MAO-A (previous study) is recorded as “non-competitive inhibition”. In addition, in the experiment on rat brain MAO-B (previous study), the rMAO-B inhibition type entry is reported as “mixed inhibition”. Further, the EC50 stood at 62.3 ± 0.2 µM in experiment [6] and 78.6 ± 2.7 µM in experiment [7].
For the compound `O=C1C[C@@H](c2ccc(O)cc2)Oc2cc(O)ccc21` [LG, reference compound], the IC50 in the experiment on human MAO-A (hMAO-A) is 0.27 ± 0.04 µM; in the experiment with human MAO-B (hMAO-B), 0.098 µM.
